Data from patent publication US7348427B2, “Antipathogenic benzamide compounds” (Genesoft Pharmaceuticals, Inc., priority 2001, dated 2008).

How the values were obtained:
[1] = system: Bacillus cereus (ATCC 11778); experiment: MIC, NCCLS broth microdilution assay; format: cell-based; details: A = B. cereus ATCC 11778
Summary of the method: (§1)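 The antifungal assay used the Manual of Clinical Microbiology (1995) procedure. […] minimal inhibitory concentrations came from NCCLS broth microdilution per M7-A4, M11-A4 and M27-T.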

[2] = system: Enterococcus faecium (ATCC 51559, a vancomycin resistant strain (VRE)); experiment: MIC, NCCLS broth microdilution assay; format: cell-based; details: D = E. faecium ATCC 51559
Summary of the method: as §1

[3] = system: Staphylococcus aureus (ATCC 13709, a methicillin sensitive strain (MSSA)); experiment: MIC, NCCLS broth microdilution assay; format: cell-based; details: E = S. aureus ATCC 13709
Summary of the method: as §1

[4] = system: Staphylococcus aureus (ATCC 27660, a methicillin resistant strain (MRSA)); experiment: MIC, NCCLS broth microdilution assay; format: cell-based; details: F = S. aureus ATCC 27660
Summary of the method: as §1

[5] = system: Staphylococcus epidermidis (ATCC 12228); experiment: MIC, NCCLS broth microdilution assay; format: cell-based; details: G = S. epidermidis ATCC 12228
Summary of the method: as §1

[6] = system: Streptococcus pneumoniae (ATCC 51422, a penicillin resistant strain (PRSP)); experiment: MIC, NCCLS broth microdilution assay; format: cell-based; details: I = S. pneumoniae ATCC 51422
Summary of the method: as §1

[7] = system: Candida albicans (ATCC 38247); experiment: Antifungal MIC assay; format: cell-based; details: B = C. albicans ATCC 38247
Summary of the method: as §1

E. faecalis ATCC 29212 = experiment: MIC, NCCLS broth microdilution assay; format: cell-based, Enterococcus faecalis; details: C = E. faecalis ATCC 29212
Summary of the method: (§2)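 MICs were determined by NCCLS broth microdilution following documents M7-A4 and M11-A4 (1997).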

S. pneumoniae ATCC 49619 = experiment: MIC, NCCLS broth microdilution assay; format: cell-based, Streptococcus pneumoniae; details: H = S. pneumoniae ATCC 49619
Summary of the method: as §2

[8] = Staphylococcus aureus, read-out: Minimum Inhibitory Concentration (MIC)

SMILES	Minimum Inhibitory Concentration (MIC) [1]	Minimum Inhibitory Concentration (MIC) [2]	Minimum Inhibitory Concentration (MIC) [3]	Minimum Inhibitory Concentration (MIC) [4]	Minimum Inhibitory Concentration (MIC) [5]	Minimum Inhibitory Concentration (MIC) [6]	Minimum Inhibitory Concentration (MIC) [7]	Minimum Inhibitory Concentration (MIC) (E. faecalis ATCC 29212)	Minimum Inhibitory Concentration (MIC) (S. pneumoniae ATCC 49619)	MIC ([1]; Bacillus cereus, ATCC11778, read-out: Minimum Inhibitory Concentration (MIC))	MIC ([2]; Enterococcus faecium, read-out: Minimum Inhibitory Concentration (MIC))	MIC [3, 8]	MIC [4, 8]	MIC ([5]; Staphylococcus epidermidis, ATCC12228, read-out: Minimum Inhibitory Concentration (MIC))	MIC ([6]; Streptococcus pneumoniae, read-out: Minimum Inhibitory Concentration (MIC))	MIC ([7]; Candida albicans, ATCC38247, read-out: Minimum Inhibitory Concentration (MIC))	MIC (E. faecalis ATCC 29212; Enterococcus faecalis, ATCC29212, read-out: Minimum Inhibitory Concentration (MIC))	MIC (S. pneumoniae ATCC 49619; Streptococcus pneumoniae, ATCC49619, read-out: Minimum Inhibitory Concentration (MIC))
CCN(CC)CCNC(=O)c1cc(NC(=O)c2cc(NC(=O)c3cc(NC(=O)c4ccc(Cl)cc4F)c[nH]3)cn2C)cn1C [Compound A-16]	+++ (+++ = MIC ≦ 4)	+++ (+++ = MIC ≦ 4)	+++ (+++ = MIC ≦ 4)	+++ (+++ = MIC ≦ 4)	+++ (+++ = MIC ≦ 4)	+++ (+++ = MIC ≦ 4)	+++ (+++ = MIC ≦ 4)	+++ (+++ = MIC ≦ 4)	+++ (+++ = MIC ≦ 4)	–	–	–	–	–	–	–	–	–
Cn1cc(NC(=O)c2cc(NC(=O)c3ccc(Cl)cc3F)c[nH]2)cc1C(=O)NCCN1CCCCC1 [Compound A-18]	+++ (+++ = MIC ≦ 4)	+++ (+++ = MIC ≦ 4)	+++ (+++ = MIC ≦ 4)	+++ (+++ = MIC ≦ 4)	+++ (+++ = MIC ≦ 4)	+++ (+++ = MIC ≦ 4)	>32 µg/mL	+++ (+++ = MIC ≦ 4)	+++ (+++ = MIC ≦ 4)	–	–	–	–	–	–	–	–	–
Cn1cc(NC(=O)c2cc(NC(=O)c3ccc(Cl)cc3F)c[nH]2)cc1C(=O)NCCN1CCSCC1 [Compound A-21]	+++ (+++ = MIC ≦ 4)	+++ (+++ = MIC ≦ 4)	+++ (+++ = MIC ≦ 4)	+++ (+++ = MIC ≦ 4)	+++ (+++ = MIC ≦ 4)	+++ (+++ = MIC ≦ 4)	>32 µg/mL	+++ (+++ = MIC ≦ 4)	+++ (+++ = MIC ≦ 4)	–	–	–	–	–	–	–	–	–
Cn1cc(NC(=O)c2cc(NC(=O)c3ccc(Cl)cc3F)c[nH]2)cc1C(=O)NCCN1CCC(F)(F)CC1 [Compound A-22]	+++ (+++ = MIC ≦ 4)	+++ (+++ = MIC ≦ 4)	+++ (+++ = MIC ≦ 4)	+++ (+++ = MIC ≦ 4)	+++ (+++ = MIC ≦ 4)	+++ (+++ = MIC ≦ 4)	>32 µg/mL	+++ (+++ = MIC ≦ 4)	+++ (+++ = MIC ≦ 4)	–	–	–	–	–	–	–	–	–
Cn1cc(NC(=O)c2cc(NC(=O)c3cc(NC(=O)c4ccc(Cl)cc4F)c[nH]3)cn2C)cc1C(=O)NCC[N+]1(C)CCOCC1 [Compound A-28]	–	–	–	–	–	–	–	–	–	≤ 4 µg/mL	12 to 32 µg/mL	≤ 4 µg/mL	≤ 4 µg/mL	≤ 4 µg/mL	≤ 4 µg/mL	≤ 4 µg/mL	4 to 12 µg/mL	≤ 4 µg/mL
Cn1cc(NC(=O)c2cc(NC(=O)c3cc(NC(=O)c4ccc(F)cc4F)cn3C)cn2C)cc1C(=O)NCCN1CCOCC1 [Compound B-1]	+++ (+++ = MIC ≦ 4)	+++ (+++ = MIC ≦ 4)	+++ (+++ = MIC ≦ 4)	+++ (+++ = MIC ≦ 4)	+++ (+++ = MIC ≦ 4)	+++ (+++ = MIC ≦ 4)	>32 µg/mL	+++ (+++ = MIC ≦ 4)	+++ (+++ = MIC ≦ 4)	–	–	–	–	–	–	–	–	–
Cn1cc(NC(=O)c2cc(NC(=O)c3cc(NC(=O)c4ccc(F)cc4F)cn3C)cn2C)cc1C(=O)NCCN1CCSCC1 [Compound B-3]	+++ (+++ = MIC ≦ 4)	+ (+ = 12 ≦ MIC ≦ 32)	+++ (+++ = MIC ≦ 4)	+++ (+++ = MIC ≦ 4)	+++ (+++ = MIC ≦ 4)	+++ (+++ = MIC ≦ 4)	>32 µg/mL	+++ (+++ = MIC ≦ 4)	+++ (+++ = MIC ≦ 4)	–	–	–	–	–	–	–	–	–
Cn1cc(NC(=O)c2cc(NC(=O)c3ccc(F)cc3F)cn2C)cc1C(=O)NCCN1CCSCC1 [Compound B-11]	+++ (+++ = MIC ≦ 4)	+++ (+++ = MIC ≦ 4)	+++ (+++ = MIC ≦ 4)	+++ (+++ = MIC ≦ 4)	+++ (+++ = MIC ≦ 4)	+++ (+++ = MIC ≦ 4)	>32 µg/mL	+++ (+++ = MIC ≦ 4)	+++ (+++ = MIC ≦ 4)	–	–	–	–	–	–	–	–	–
Cn1cc(NC(=O)c2cc(NC(=O)c3cc(NC(=O)c4ccc(F)cc4F)cn3C)cn2C)cc1C(=O)NCCc1ccncc1 [Compound B-22]	+++ (+++ = MIC ≦ 4)	+++ (+++ = MIC ≦ 4)	+++ (+++ = MIC ≦ 4)	+++ (+++ = MIC ≦ 4)	+++ (+++ = MIC ≦ 4)	+++ (+++ = MIC ≦ 4)	>32 µg/mL	+++ (+++ = MIC ≦ 4)	+++ (+++ = MIC ≦ 4)	–	–	–	–	–	–	–	–	–
Cn1cc(NC(=O)c2cc(NC(=O)c3cc(NC(=O)c4ccc(F)cc4F)cn3C)cn2C)cc1C(=O)NCCc1cccnc1 [Compound B-24]	+++ (+++ = MIC ≦ 4)	+++ (+++ = MIC ≦ 4)	+++ (+++ = MIC ≦ 4)	+++ (+++ = MIC ≦ 4)	+++ (+++ = MIC ≦ 4)	+++ (+++ = MIC ≦ 4)	>32 µg/mL	+++ (+++ = MIC ≦ 4)	+++ (+++ = MIC ≦ 4)	–	–	–	–	–	–	–	–	–
Cn1cc(NC(=O)c2ccc(F)cc2F)cc1C(=O)Nc1cc(C(=O)Nc2cc(C(=O)N3CCC(O)CC3)n(C)c2)n(C)c1 [Compound B-26]	>32 µg/mL	>32 µg/mL	>32 µg/mL	>32 µg/mL	>32 µg/mL	>32 µg/mL	>32 µg/mL	>32 µg/mL	>32 µg/mL	–	–	–	–	–	–	–	–	–
Cn1cc(NC(=O)c2cc(NC(=O)c3cc(NC(=O)c4ccc(F)cc4F)cn3C)cn2C)cc1C(=O)NCCN1CCC(F)(F)CC1 [Compound B-27]	+++ (+++ = MIC ≦ 4)	+++ (+++ = MIC ≦ 4)	+++ (+++ = MIC ≦ 4)	+++ (+++ = MIC ≦ 4)	+++ (+++ = MIC ≦ 4)	+++ (+++ = MIC ≦ 4)	>32 µg/mL	+++ (+++ = MIC ≦ 4)	+++ (+++ = MIC ≦ 4)	–	–	–	–	–	–	–	–	–
Cn1cc(NC(=O)c2cc(NC(=O)c3cc(NC(=O)c4ccccc4F)cn3C)cn2C)cc1C(=O)NCCN1CCSCC1 [Compound B-41]	+++ (+++ = MIC ≦ 4)	+++ (+++ = MIC ≦ 4)	+++ (+++ = MIC ≦ 4)	+++ (+++ = MIC ≦ 4)	+++ (+++ = MIC ≦ 4)	+++ (+++ = MIC ≦ 4)	>32 µg/mL	+++ (+++ = MIC ≦ 4)	+++ (+++ = MIC ≦ 4)	–	–	–	–	–	–	–	–	–
Cn1cc(NC(=O)c2cc(NC(=O)c3ccc(Cl)cc3F)cn2C)cc1C(=O)NCCN1CCOCC1 [Compound B-48]	+++ (+++ = MIC ≦ 4)	+++ (+++ = MIC ≦ 4)	+++ (+++ = MIC ≦ 4)	++ (++ = 4 < MIC < 12)	+++ (+++ = MIC ≦ 4)	+++ (+++ = MIC ≦ 4)	>32 µg/mL	+++ (+++ = MIC ≦ 4)	+++ (+++ = MIC ≦ 4)	–	–	–	–	–	–	–	–	–
